Results published in PMC6937593, “Anti-metastatic Inhibitors of Lysyl Oxidase (LOX): Design and Structure–Activity Relationships” (Journal of Medicinal Chemistry, 2019).

Columns and labels:
[1] = Caco-2 permeability assay; assay type: in vitro ADME; conditions: human
MLM stability assay = assay type: in vitro ADME, mouse; conditions: percentage of compound remaining after 30 min; 10 μM
Description: Mouse liver microsomes (BALB/c) were purchased from Tebu-bio, and the assay was performed by methods previously described.[19] Inhibitors at 10 μM concentration incubated with the microsomes were assessed at 0, 15, and 30 min. Control samples containing no microsomes and no cofactors were also assessed at 0 and 30 min. Samples were extracted by protein precipitation and centrifugation for 20 min in a refrigerated centrifuge (4 °C) at 3700 rpm. The supernatant was analyzed by LCMS/MS for % metabolized over time.

In vivo PK in mice = assay: In vivo PK in mice; set-up: species or system mouse
Description: Female BALB/c or CD1 mice (Charles River Laboratories) at 6 weeks of age were used for the PK analyses. The mice were dosed orally by gavage (50 mg/kg in dimethyl sulfoxide (DMSO)/water 1:19 v/v; n = 21) or intravenously in the tail vein (10 mg/kg in DMSO/Tween20/saline 10:1:89 v/v/v; n = 24). […] Three mice were used per time point per route. They were placed under halothane or isoflurane anesthesia, and blood for plasma preparation was taken by terminal cardiac puncture into heparinized syringes. Plasma samples were snap-frozen in liquid nitrogen and then stored at −80 °C prior to analysis.

LOX = target: T1, LOX (Sus scrofa, UniProt P45845); assay: LOX enzyme activity assay (HRP-coupled fluorescent, cadaverine substrate); assay type: biochemical, pig;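 also: LOX isolated from porcine skin, nine-point dilution series starting at 100 µM, 20 min preincubation with enzyme, BAPN serving as positive control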
T1 construct: LOX enzyme was extracted from pig skin by the method of Shackleton and Hulmes; from tissue; host or cells: pig skin
T1 sequence (P45845 1-249): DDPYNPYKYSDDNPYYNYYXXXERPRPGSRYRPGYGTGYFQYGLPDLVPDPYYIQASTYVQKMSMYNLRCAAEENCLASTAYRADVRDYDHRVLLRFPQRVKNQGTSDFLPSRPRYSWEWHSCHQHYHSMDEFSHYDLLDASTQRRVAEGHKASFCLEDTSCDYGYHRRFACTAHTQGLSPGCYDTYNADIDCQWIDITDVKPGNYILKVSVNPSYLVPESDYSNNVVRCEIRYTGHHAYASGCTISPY
Description: LOX enzyme was extracted from pig skin by the method of Shackleton and Hulmes.[24] LOX catalytic activity was determined using a horseradish peroxidase (HRP)-coupled fluorescent assay previously described,[19] with cadaverine hydrochloride as a substrate, BAPN as positive control, and a preincubation time of 20 min with nine dilutions from a top concentration of 100 μM.

MAO-B = target: T2, MAO-B (Homo sapiens, UniProt P27338); assay: MAO-B assay (MAO-Glo); assay type: biochemical; conditions: n = 2 individual values
T2 construct: purchased Sigma
T2 sequence (P27338 1-520): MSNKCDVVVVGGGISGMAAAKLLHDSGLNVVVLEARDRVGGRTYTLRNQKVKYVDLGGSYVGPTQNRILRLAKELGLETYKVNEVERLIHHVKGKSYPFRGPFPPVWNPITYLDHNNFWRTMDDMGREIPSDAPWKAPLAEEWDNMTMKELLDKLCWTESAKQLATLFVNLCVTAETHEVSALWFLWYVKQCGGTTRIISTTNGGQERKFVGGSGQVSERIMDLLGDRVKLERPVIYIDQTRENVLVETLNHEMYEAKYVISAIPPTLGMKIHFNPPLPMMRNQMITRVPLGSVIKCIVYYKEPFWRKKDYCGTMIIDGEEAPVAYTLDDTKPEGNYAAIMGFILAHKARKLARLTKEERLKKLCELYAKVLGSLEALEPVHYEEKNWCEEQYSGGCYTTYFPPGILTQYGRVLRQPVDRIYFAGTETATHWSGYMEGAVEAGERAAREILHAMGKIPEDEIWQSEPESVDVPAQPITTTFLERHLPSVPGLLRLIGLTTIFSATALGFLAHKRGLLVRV
Description: (§1) All amine oxidase assays were performed with concentrations as above. MAO-A and MAO-B enzymes were purchased from Promega and Sigma, respectively. The catalytic activity of MAO-A and MAO-B was determined using the Promega MAO-Glo assay kit (substrate included), with clorgyline and deprenyl as positive controls, respectively. DAO was purchased from Sigma and the catalytic activity was determined using the Promega ROS-Glo assay kit, with aminoguanidine as the positive control.

DAO = target: T3, DAO (Sus scrofa, UniProt Q9TRC7); assay: biochemical; conditions: n = 2 individual values
T3 construct: purchased Sigma
T3 sequence (Q9TRC7 25-755): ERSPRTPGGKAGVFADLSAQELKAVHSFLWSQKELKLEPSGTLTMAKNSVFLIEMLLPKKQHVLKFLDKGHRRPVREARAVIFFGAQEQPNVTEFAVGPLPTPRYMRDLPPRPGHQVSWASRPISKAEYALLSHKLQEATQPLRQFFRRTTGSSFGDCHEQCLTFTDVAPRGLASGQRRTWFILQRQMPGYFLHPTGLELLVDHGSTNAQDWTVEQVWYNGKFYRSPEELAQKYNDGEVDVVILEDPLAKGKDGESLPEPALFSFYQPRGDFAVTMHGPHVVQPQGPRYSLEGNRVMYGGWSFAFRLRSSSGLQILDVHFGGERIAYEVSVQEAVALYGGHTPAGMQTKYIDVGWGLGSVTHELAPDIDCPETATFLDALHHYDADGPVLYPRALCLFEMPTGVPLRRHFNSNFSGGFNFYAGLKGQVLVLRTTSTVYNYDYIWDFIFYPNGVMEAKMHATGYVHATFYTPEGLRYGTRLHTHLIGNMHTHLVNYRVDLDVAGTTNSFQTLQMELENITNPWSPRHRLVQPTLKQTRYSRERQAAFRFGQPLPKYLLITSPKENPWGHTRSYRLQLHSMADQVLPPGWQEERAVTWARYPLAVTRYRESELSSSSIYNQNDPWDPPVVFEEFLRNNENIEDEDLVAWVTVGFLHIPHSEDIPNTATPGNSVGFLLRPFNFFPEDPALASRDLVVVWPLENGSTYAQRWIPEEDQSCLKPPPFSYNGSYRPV
Description: as §1

[2] = mouse plasma, single oral gavage dose 50 mg/kg

Cc1ccc(-c2cc(S(=O)(=O)c3ccc(CN)s3)ccc2S(C)(=O)=O)cc1.Cl [9l, (5-((4′-Methyl-6-(methylsulfonyl)-[1,1′-biphenyl]-3-yl)sulfonyl)thiophen-2-yl)methanamine Hydrochloride]
Papp A→B ([1]; A → B): 18 ×10⁻⁶ cm/s | Papp B→A ([1]; B → A): 25 ×10⁻⁶ cm/s | MLM stability (%) (MLM stability assay): 95% | AUC(PO) (In vivo PK in mice; [2]): 12 µM·h | Cmax (In vivo PK in mice; [2]): 9.4 µM | F (oral bioavailability) (In vivo PK in mice; mouse, PO 50 mg/kg vs IV 10 mg/kg): 74% | CL(IV) (In vivo PK in mice; mouse, intravenous 10 mg/kg): 106 mL/min/kg | t1/2(IV) (In vivo PK in mice; mouse, intravenous 10 mg/kg): 24 min | LOX inhibition (in words) (LOX): sub-micromolar | IC50 (MAO-B): > 100 µM | IC50 (DAO): > 100 µM
